In this test the target is T1, Kv4.3 (Rattus norvegicus, UniProt Q62897).
T1 construct: expressed in transfected cells; host or cells: HEK293t
T1 sequence (Q62897 1-655): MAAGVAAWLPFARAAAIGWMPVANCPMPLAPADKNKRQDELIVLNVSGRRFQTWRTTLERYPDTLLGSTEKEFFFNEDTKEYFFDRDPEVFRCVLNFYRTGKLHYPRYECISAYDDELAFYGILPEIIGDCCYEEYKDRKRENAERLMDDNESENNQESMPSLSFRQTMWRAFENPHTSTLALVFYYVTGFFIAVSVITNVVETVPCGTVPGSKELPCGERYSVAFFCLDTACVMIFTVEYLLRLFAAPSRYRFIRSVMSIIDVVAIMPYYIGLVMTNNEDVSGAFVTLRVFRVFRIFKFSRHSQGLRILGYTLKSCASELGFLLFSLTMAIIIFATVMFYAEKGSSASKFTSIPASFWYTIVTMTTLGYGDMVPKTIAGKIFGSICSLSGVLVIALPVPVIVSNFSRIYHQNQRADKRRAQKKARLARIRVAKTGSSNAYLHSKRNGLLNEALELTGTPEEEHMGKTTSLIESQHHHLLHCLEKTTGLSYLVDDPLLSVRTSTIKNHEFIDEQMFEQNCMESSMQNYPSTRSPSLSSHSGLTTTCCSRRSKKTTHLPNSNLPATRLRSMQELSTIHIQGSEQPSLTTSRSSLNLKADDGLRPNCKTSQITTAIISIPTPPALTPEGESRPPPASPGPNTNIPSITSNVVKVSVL
The test is described as follows: whole-cell patch-clamp, Kv4.3 in HEK293t cells, concentration-response and time course. It is filed as cell-based. The source says:
Rat cDNA genes encoding Kv4.2 (Accession: NM_031730.2) and Kv4.3 (Accession: AB003587.1) were subcloned to vector pcDNA3.1. In addition, human cDNA genes encoding Nav1.7 (Accession: DQ857292.1) and Nav1.5 (Accession: AB158469.2) were subcloned to vectors pcDNA3.1-mod and pcDNA3.1, separately. Then, Kv4.2, Kv4.3, Nav1.5 and Nav1.7 constructs were transiently transfected into the human embryonic kidney 293t (HEK293t) cells using lipofectamine 2000 (Invitrogen, USA) in accordance with manufacturer protocols. Thereafter, HEK293 cells were inoculated within Dulbecco’s modified Eagle’s medium (DMEM) containing 10% fetal bovine serum (FBS) at 5% CO2 and 37°C. The Kv4.3 channel and the Kv4.2 counterpart were then transfected in the absence of β subunit. Subsequently, cells were incubated with a DNA-lipofectamine mixture (one reporter plasmid for green fluorescence protein and channel constructs) for 4-6 h, and were washed with the fresh medium.
An EPC-10 patch-clamp amplifier (HEKA, Germany) was employed to record the potassium currents at the configuration of whole-cell patch-clamp under an ambient temperature of 22-25°C. The resistance was 2.0-3.0 MΩ when the recording pipette contained a full volume of internal solution (supplemented with 140 mM KCl, 10 mM HEPES, 2.5 mM MgCl2, 5 mM ATP and 11 mM EGTA). KOH was utilized to adjust the pH to 7.2, while sucrose was employed to adjust the osmolarity to 310 mOsm/L. The culture medium was replaced with an external solution containing 150 mM NaCl, 2.5 mM CaCl2, 10 mM HEPES, 2 mM MgCl2, 5 mM KCl, and 10 mM D-glucose. Similarly, sucrose and NaOH were applied to adjust the osmolarity to 330 mOsm/L and pH to 7.4. […] The series resistance was maintained at about 5 MΩ, with 65-70% compensation. Finally, the leakage currents and linear capacitance were subtracted digitally according to the P/4 protocol. […]
On-rates were determined by fitting time course data with a single exponential decay function (2): y = Ae^-kx + C, where x is the time, A is the normalized current value before the application of toxin (usually 1.0), and C is the final normalized current value following the block by the toxin. The on-rate (τon) was determined from the inverse of the rate constant k.
Off-rates were determined by fitting time course data with a double exponential association function (3): y = A(1-e^-kx) + B(1-e^-fx) + C, where x is the time, A or B is the normalized current value after washout of the toxin (usually 1.0 if complete washout occurred), and C is the normalized current value before the washout of the toxin. The off-rate (τoff) was determined from the inverse of the rate constant k or f.

The structures appear in SMILES notation. Where a SMILES comes first, the peptide text is derived from it. Bridges are numbered along the chain shown (N, C = ends). Some results are limits rather than exact numbers.

By IC50 is commonly meant the point on the concentration scale where inhibition reaches its midpoint.

Regarding `CC(C)C[C@@H]1NC(=O)[C@H](CCCCN)NC(=O)[C@H](Cc2ccc(O)cc2)NC(=O)[C@@H]2CSSC[C@@H]3NC(=O)[C@H](Cc4ccc(O)cc4)NC(=O)[C@H](Cc4ccccc4)NC(=O)CNC(=O)[C@H](C)NC(=O)[C@H](CSSC[C@H](NC(=O)[C@@H](N)CC(C)C)C(=O)N[C@@H](CO)C(=O)N[C@@H](CCCNC(=N)N)C(=O)N[C@@H](CCC(=O)O)C(=O)NCC(=O)N[C@@H](CCC(=O)O)C(=O)N[C@@H](Cc4ccccc4)C(=O)N2)NC(=O)[C@H](CSSC[C@@H](C(=O)N[C@@H](Cc2ccc(O)cc2)C(=O)N[C@@H](CCCNC(=N)N)C(=O)N[C@@H](CC(N)=O)C(=O)O)NC(=O)[C@H](Cc2c[nH]cn2)NC(=O)[C@H](CC(C)C)NC(=O)[C@H](C(C)C)NC(=O)[C@H](Cc2ccccc2)NC(=O)[C@H](C)NC(=O)[C@H](CCCCN)NC3=O)NC(=O)[C@H](CCCCN)NC(=O)[C@H](CCCNC(=N)N)NC1=O` [JZTX-X, Jingzhaotoxin-X] (H-LCSREGEFCYKLRKCCAGFYCKAFVLHCYRN-OH; disulfide 2-16, 9-21, 15-28; N-terminus assumed), the “inhibition of Kv4.3 at resting potential without pulses” value (-80 mV, no pulse during first ~100 s of treatment with 200 nM or 500 nM (order Kv4.2, Kv4.3), same as with pulses at 5 s intervals, n = 5) is “approximately 95%”. For the setting “HEK293t cells, 1 nM-10 μM, 300-ms step to +20 mV from -80 mV, 22-25°C, pH 7.4, Hill equation fit, n = 8, read-out: IC50 for Kv4.3 channels”, the IC50 amounted to 0.21 µM. Also, for the setting “HEK293t cells, +20 mV from -80 mV, n = 8”, the “Hill Coefficient, Kv4.3” value came out at 1.17. Further, the “reversal of Kv4.3 inhibition after rinsing” value (in 3 min following rinsing, high JZTX-X dose, HEK293t cells, n = 6) is on record as over 95%.

Values taken from publication PMC7269146, “Jingzhaotoxin-X, a gating modifier of Kv4.2 and Kv4.3 potassium channels purified from the venom of the Chinese tarantula Chilobrachys jingzhao” (The Journal of Venomous Animals and Toxins Including …, 2020).
